Data on 15 compounds can be found in PubChem BioAssay (NCI).

Structures are written as SMILES.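 Cells were grown in 96-well plates and exposed to each compound for 48 hours at five concentrations; endpoints were interpolated linearly between bracketing concentrations, or set to the highest concentration if not reached. GI50 = concentration required for 50% inhibition of growth. Definition used: TGI = concentration required for complete inhibition of growth.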 Bounds are passed on as bounds.

Holding throughout (assay): NCI tumour cell line growth inhibition, 48 h
Experiment [1] concerns UO-31 renal.
Experiment [2] deals with K-562 leukemia.
The subject of experiment [3] is LOX IMVI melanoma.
The subject of experiment [4] is A549 NSCLC.
Experiment [5] concerns COLO 205 colon.
The subject of experiment [6] is KM12 colon.
The test system of experiment [7] is TK-10 renal.
Experiment [8] has as its system NCI-H522 lung.

`OC(CCNCc1ccccc1)c1ccc2ccccc2c1` (stereo not given): the TGI in experiment [1] was 32.3 µM; in experiment [2] it was 50.9 µM; in experiment [3] it was 27.2 µM; in experiment [4] it was 36.3 µM; in experiment [5], 47.2 µM; in experiment [6], 31.7 µM. For the same compound, the TGI in experiment [7] is 33.6 µM; in experiment [8], 35 µM.
Regarding `COC(=O)C(Cc1ccccc1)NP(=O)(O)OCC1OC(n2cc(F)c(=O)[nH]c2=O)CC1O` (stereo not given), the TGI in experiment [1], in experiment [2], in experiment [3], in experiment [4], in experiment [5] and in experiment [6] was above 100 µM each time. Further, the TGI in experiment [7] and in experiment [8] was above 100 µM in each case.
Take `CCOc1cc(C2CC(c3ccc(NS(=O)(=O)c4cc([N+](=O)[O-])ccc4C)cc3)=NN2c2ccc([N+](=O)[O-])cc2[N+](=O)[O-])ccc1O` (stereo not given): the TGI was 39.8 µM in experiment [1]; above 100 µM in experiment [2]; 44.1 µM in experiment [3]; 28.1 µM in experiment [4]; 52.4 µM in experiment [5]; above 100 µM in experiment [6]. Besides, the TGI in experiment [7] was determined as 33.7 µM; in experiment [8], 34.2 µM.
Take `c1ccc2c(c1)CCc1c-2n(CCN2CCOCC2)c2ccccc12`: the TGI in experiment [1] was above 100 µM; in experiment [2], above 100 µM; in experiment [3] it was above 100 µM; in experiment [4], above 100 µM; in experiment [5] it was above 100 µM; in experiment [6], 27.3 µM. Besides, the values for the TGI in experiment [7] and in experiment [8] were above 100 µM and 28.6 µM, respectively.
In the case of `O=C(Nc1nc2ccccc2s1)c1cc([N+](=O)[O-])ccc1Cl`, the TGI in experiment [1] was above 100 µM; in experiment [2] it was above 100 µM; in experiment [3] it was 13.7 µM; in experiment [4], above 100 µM; in experiment [5], above 100 µM; in experiment [6] it was above 48.1 µM. The TGI was above 100 µM in experiment [7] and 11.6 µM in experiment [8].
For `O=C(O)c1nc(-c2ccccc2)[nH]c1C(=O)O`, the TGI stood at 24.8 µM in experiment [1]; 15.3 µM in experiment [2]; 9.47 µM in experiment [3]; 29.3 µM in experiment [4]; 31.7 µM in experiment [5]; 14.6 µM in experiment [6]. Further, the TGI stood at 28.8 µM in experiment [7] and 32 µM in experiment [8].
With `COc1ccc2c(c1)c(CC(=O)O)c(C)n2C(=O)c1ccc(Cl)cc1`, the TGI in experiment [1], in experiment [2], in experiment [3], in experiment [4], in experiment [5] and in experiment [6] was above 100 µM each time. For the same compound, the TGI in experiment [7] and in experiment [8] was above 100 µM in each case.
For `C[C@@H]1CC[C@H]2C(C(O)CCCCC(O)C3=C(C(F)(F)F)O[C@@H]4O[C@@]5(C)CC[C@H]6[C@H](C)CC[C@@H]3[C@@]46OO5)=C(C(F)(F)F)O[C@@H]3O[C@@]4(C)CC[C@@H]1[C@]32OO4` (stereo not given in full), the GI50 is 10.2 µM in experiment [1]; 16.2 µM in experiment [2]; 3.12 µM in experiment [3]; 8.87 µM in experiment [4]; 8.04 µM in experiment [5]; 4.71 µM in experiment [6]. Moreover, the GI50 in experiment [7] is above 100 µM; in experiment [8] it was 26.6 µM. In addition, the TGI in experiment [1] was above 100 µM; in experiment [2], above 100 µM; in experiment [3], 11.8 µM; in experiment [4], above 100 µM; in experiment [5], 29.4 µM; in experiment [6], above 100 µM. The TGI in experiment [7] and in experiment [8] was above 100 µM in each case.
On to `O=C(O)c1ccn(-c2cccc(-n3ccc(C(=O)O)n3)n2)n1`, for which the TGI in experiment [1], in experiment [2], in experiment [3], in experiment [4], in experiment [5] and in experiment [6] was above 100 µM throughout. The TGI in experiment [7] and in experiment [8] was above 100 µM in each case.
As for `COC(=O)c1c(OC(C)=O)ccc2c1c1c(n2C)C(=O)c2ccccc2C1=O`, the TGI was above 100 µM in experiment [1]; above 100 µM in experiment [2]; 80.8 µM in experiment [4]; above 100 µM in experiment [5]; 86.4 µM in experiment [6]; 88.1 µM in experiment [7]. In experiment [8], this compound gave a TGI of 67.6 µM.
For `COC(=O)c1c(O)ccc2c1c1c(n2Cc2cccc(C)c2)C(=O)c2ccccc2C1=O`, the TGI in experiment [1] amounted to 19.8 µM; in experiment [2], 35 µM; in experiment [3], 26.6 µM; in experiment [4], 20.3 µM; in experiment [5], 3.04 µM; in experiment [6], 28 µM. Moreover, the TGI was determined as 25.2 µM in experiment [7] and 26.8 µM in experiment [8].
On to `COc1c(O)cc(O)c2c(=O)cc(-c3ccccc3)oc12`, for which the TGI was 6.04 µM in experiment [1]; above 100 µM in experiment [2]; 68.8 µM in experiment [3]; above 100 µM in experiment [4]; above 100 µM in experiment [5]; above 100 µM in experiment [6]. Further, the TGI in experiment [7] and in experiment [8] was above 100 µM throughout.
Take `CSc1n[nH]c(N)c1C(=O)Nc1ccc(C)cc1`: the TGI in experiment [1], in experiment [2], in experiment [3], in experiment [4], in experiment [5] and in experiment [7] was above 100 µM each time. Moreover, the TGI in experiment [8] is above 100 µM.
Regarding `COc1ccc2nc3cc([N+](=O)[O-])ccc3c(Nc3ccc(S(=O)(=O)NC(C)=O)cc3)c2c1`, the TGI in experiment [1], in experiment [2], in experiment [3], in experiment [4], in experiment [5] and in experiment [7] was above 100 µM each time. In experiment [8], this compound returned a TGI above 100 µM.
For the compound `COc1ccccc1NC(=O)CC(=O)N1N=C(C)C(N=Nc2ccc(C(=O)O)cc2)C1=O` (stereo not given), the TGI in experiment [1], in experiment [2], in experiment [3], in experiment [4], in experiment [5] and in experiment [6] was above 100 µM throughout. The TGI in experiment [7] and in experiment [8] was above 100 µM each time.
